Source: ChEMBL document CHEMBL1201862, “PubChem BioAssay data set” (2004)
The source made the active and inactive calls.

Tests used:
[1] = molecular target: Beta-galactosidase (Escherichia coli, UniProt Q8VNN2); assay: PubChem AID 485352; assay type: functional
[2] = molecular target: T1, Type-1 angiotensin II receptor (Homo sapiens, UniProt P30556); assay: antagonism of angiotensin II type 1 receptor – cell-based, uHTS hits, selectivity assay for APJ receptor antagonist project, dose response (AID 463214); assay type: functional;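 also: antagonist potency against angiotensin II stimulated AT1 response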
T1 sequence (P30556 whole entry): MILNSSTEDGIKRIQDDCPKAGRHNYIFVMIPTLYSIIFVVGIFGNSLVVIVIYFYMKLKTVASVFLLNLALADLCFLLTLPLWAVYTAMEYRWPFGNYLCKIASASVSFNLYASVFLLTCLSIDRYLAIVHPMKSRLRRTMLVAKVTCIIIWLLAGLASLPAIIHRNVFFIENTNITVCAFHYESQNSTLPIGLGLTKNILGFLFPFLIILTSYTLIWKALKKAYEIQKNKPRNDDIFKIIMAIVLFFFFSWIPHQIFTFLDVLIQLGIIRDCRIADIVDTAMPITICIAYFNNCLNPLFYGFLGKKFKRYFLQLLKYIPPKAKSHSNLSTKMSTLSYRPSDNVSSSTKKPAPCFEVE

[3] = HEK-293T viability loss, compound-treated – cell-based, uHTS hits, cytotoxicity control for B/T-cell NF-kB inhibitor project, dose response (AID 489019); assay type: functional;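 also: IC50 reflects cytotoxicity as loss of cell viability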
[4] = system: Jurkat; assay: blockers of NF-kB activation in T cells – Jurkat, luciferase reporter, luminescence, B- and T-cell, dose response (AID 489004); assay type: functional, cell-based; settings: Homo sapiens;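 also: NF-kB luciferase reporter Jurkat cells stimulated with PMA plus ionomycin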
[5] = system: Vero; assay: cells; assay type: functional; settings: Chlorocebus sabaeus
[6] = system: Vero; assay: cells; assay type: functional, cell-based; settings: Chlorocebus sabaeus
[7] = molecular target: T2, High affinity choline transporter 1 (Homo sapiens, UniProt Q9GZV3); assay: human choline transporter blockers, potency – cell-based, 5-point CRC, membrane potential dye, dose response (AID 504840); assay type: functional
T2 sequence (Q9GZV3 whole entry): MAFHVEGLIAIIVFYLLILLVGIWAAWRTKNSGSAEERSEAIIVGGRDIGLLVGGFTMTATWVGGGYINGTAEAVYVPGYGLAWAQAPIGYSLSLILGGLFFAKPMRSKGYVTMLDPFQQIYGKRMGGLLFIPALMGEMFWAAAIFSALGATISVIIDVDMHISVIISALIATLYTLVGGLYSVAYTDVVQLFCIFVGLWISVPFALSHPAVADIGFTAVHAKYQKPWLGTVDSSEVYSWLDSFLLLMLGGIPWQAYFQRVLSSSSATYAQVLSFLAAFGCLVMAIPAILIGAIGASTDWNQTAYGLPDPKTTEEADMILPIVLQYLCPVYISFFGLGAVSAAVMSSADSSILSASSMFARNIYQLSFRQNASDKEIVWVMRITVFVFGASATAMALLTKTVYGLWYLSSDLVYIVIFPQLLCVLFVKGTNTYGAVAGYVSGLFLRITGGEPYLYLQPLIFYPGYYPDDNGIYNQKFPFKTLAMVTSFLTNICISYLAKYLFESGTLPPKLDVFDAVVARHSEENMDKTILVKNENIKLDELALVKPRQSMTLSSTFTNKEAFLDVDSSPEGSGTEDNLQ

[8] = system: HEK293; assay: cells; assay type: functional, cell-based; settings: Homo sapiens
[9] = molecular target: T3, Nuclear receptor subfamily 0 group B member 1 (Homo sapiens, UniProt P51843); assay: Luminescence-based cell-based high throughput dose response assay for inhibitors of the orphan nuclear receptor subfamily 0, group B, member 1 (DAX1; NR0B1). [Related pubchem assays (depositor defined):AID504766, AID504790]; assay type: functional
T3 sequence (P51843 whole entry): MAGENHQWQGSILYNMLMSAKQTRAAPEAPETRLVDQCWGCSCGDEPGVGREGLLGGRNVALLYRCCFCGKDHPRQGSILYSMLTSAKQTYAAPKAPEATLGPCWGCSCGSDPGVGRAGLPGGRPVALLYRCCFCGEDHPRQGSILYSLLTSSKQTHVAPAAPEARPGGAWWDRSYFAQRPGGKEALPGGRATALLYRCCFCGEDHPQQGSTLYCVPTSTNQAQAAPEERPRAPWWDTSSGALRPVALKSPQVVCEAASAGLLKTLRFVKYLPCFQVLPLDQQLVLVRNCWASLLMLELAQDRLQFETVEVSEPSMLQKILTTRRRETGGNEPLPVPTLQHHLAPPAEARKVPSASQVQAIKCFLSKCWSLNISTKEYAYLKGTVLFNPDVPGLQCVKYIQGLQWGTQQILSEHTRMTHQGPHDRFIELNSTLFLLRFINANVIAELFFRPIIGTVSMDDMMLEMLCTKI

[10] = Luminescence Cell-Based Dose Response HTS to Identify Activators of Luciferase Translation or Activity in H4 […] Cells. [Related pubchem assays: 1829 (Project Summary), 1814 (Primary HTS)]; assay type: functional
[11] = microbe, parasite or virus in culture; assay type: functional; settings: Mycobacterium tuberculosis
[12] = molecular target: T4, Replicative DNA helicase DnaB (Mycobacterium tuberculosis, UniProt P9WMR3); assay: DnaB intein splicing inhibitors, dose response, biochemical, cell-free fluorescence (AID 449749); assay type: functional
T4 sequence (P9WMR3 whole entry): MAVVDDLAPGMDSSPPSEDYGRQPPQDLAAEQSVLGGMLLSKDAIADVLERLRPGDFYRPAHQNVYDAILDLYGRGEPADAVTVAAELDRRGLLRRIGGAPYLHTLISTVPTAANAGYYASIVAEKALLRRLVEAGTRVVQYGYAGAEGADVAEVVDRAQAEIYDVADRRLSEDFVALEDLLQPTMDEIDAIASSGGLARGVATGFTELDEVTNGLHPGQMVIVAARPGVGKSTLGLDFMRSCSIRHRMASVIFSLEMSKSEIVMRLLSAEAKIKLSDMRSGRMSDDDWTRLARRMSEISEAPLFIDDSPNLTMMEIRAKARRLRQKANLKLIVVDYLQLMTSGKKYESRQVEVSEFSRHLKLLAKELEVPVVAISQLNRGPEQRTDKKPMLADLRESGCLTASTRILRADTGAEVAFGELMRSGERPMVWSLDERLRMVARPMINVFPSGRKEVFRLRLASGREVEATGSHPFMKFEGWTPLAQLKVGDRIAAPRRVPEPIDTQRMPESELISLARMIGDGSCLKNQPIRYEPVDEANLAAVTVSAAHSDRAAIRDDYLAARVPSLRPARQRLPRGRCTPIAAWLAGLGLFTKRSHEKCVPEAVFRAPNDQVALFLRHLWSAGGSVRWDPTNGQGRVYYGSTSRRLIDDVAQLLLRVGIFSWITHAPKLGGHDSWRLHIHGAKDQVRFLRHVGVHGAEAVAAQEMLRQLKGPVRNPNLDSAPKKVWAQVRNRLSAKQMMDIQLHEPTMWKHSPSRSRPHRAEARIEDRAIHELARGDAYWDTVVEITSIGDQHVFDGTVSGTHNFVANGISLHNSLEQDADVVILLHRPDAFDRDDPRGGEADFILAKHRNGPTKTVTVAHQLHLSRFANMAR

[13] = molecular target: T5, Protein RecA (Mycobacterium tuberculosis, UniProt P9WHJ3); assay: Fluorescence Cell-Free Homogeneous Dose Retest to Identify Inhibitors of RecA-Intein Splicing Activity. [Related pubchem assays (depositor defined):AID2097, AID2223, AID489010, AID492950]; assay type: functional
T5 sequence (P9WHJ3 whole entry): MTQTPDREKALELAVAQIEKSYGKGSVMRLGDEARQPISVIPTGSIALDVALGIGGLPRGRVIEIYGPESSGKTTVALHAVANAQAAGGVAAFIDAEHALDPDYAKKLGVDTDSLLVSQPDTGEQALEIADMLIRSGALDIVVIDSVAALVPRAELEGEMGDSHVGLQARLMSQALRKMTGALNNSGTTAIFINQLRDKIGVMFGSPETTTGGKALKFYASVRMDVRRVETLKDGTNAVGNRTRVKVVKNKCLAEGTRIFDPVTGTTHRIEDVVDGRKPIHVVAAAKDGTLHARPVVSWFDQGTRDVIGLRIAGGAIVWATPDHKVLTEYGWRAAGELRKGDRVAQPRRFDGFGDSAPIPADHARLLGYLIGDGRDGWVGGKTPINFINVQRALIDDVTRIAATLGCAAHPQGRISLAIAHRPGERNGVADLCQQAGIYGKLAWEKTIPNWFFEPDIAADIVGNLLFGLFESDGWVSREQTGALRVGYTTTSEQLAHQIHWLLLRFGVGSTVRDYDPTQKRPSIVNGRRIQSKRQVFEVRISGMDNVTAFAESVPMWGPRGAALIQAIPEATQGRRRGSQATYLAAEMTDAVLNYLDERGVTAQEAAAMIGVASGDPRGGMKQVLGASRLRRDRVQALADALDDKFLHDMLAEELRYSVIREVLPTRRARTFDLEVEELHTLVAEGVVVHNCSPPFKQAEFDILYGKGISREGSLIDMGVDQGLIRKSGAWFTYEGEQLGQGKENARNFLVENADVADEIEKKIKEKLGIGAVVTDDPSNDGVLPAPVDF

[14] = system: H4; assay: Luminescence Cell-Based Dose Response HTS to Identify Activators of 5'UTR Stem-Loop Driven Prion Protein mRNA Translation in H4 Neuroglioblastoma Cells. [Related pubchem assays: 1829 (Project Summary), 1814 (Primary HTS)]; assay type: functional; settings: Homo sapiens
[15] = molecular target: T6, Heat shock factor protein 1 (Mus musculus, UniProt P38532); assay: decrease of HSF1-responsive luciferase luminescence – cell-based, NIH3T3, dose retest, confirmation (AID 2382); assay type: functional;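 also: NIH3T3 fibroblasts with HSF1-driven luciferase reporter stressed by proteasome inhibitor MG132; luminescence from HSF1-driven luciferase expression after 8 hours of MG132 stress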
T6 sequence (P38532 whole entry): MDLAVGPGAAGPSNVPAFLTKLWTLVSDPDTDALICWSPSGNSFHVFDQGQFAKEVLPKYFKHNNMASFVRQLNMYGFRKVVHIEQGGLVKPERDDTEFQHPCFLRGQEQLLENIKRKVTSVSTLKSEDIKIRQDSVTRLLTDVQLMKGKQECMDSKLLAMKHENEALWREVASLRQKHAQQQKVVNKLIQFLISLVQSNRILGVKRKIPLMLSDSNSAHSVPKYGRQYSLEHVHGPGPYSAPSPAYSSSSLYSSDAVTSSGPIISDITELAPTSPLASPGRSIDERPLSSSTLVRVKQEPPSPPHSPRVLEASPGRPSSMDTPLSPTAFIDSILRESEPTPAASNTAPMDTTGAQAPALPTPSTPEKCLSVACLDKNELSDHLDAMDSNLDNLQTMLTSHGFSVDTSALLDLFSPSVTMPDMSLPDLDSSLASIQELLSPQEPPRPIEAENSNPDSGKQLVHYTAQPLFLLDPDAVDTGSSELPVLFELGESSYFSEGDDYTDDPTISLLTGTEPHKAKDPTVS

[16] = Luminescence Cell-Based Dose Confirmation HTS to Identify Activators of 5'UTR Stem-Loop Driven Alpha-Synuclein mRNA Translation in H4 Neuroglioblastoma Cells. [Related pubchem assays: 1829 (Project Summary), 1814 (Primary HTS)]; assay type: functional
[17] = system: HEK293; assay: EBV LMP1 TES2 canonical NF-kB signalling blockers – cell-based, HEK293, luciferase, cherry-pick, dose response (AID 588343); assay type: functional; settings: Homo sapiens
[18] = reduction of Shn3 3'UTR-driven luciferase in osteoblasts – cell-based, Clone20 osteoblasts, firefly luciferase, cherry-picked, dose response (AID 624132); assay type: functional;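 also: firefly luciferase luminescence from reporter carrying the Shn3 3'UTR in osteoblasts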
[19] = loss of viability in HepG2 cells – cell-based, CellTiter-Glo, cherry-picked, cytotoxicity control for Shn3 inhibitor project, dose response (AID 624134); assay type: functional
[20] = non-specific 3'UTR reporter inhibition in Clone20-Shn3RL – cell-based, Renilla luciferase, cherry-picked, counter-screen for Shn3 inhibitor project, dose response (AID 624133); assay type: functional

Chain of Beta-galactosidase (Q8VNN2 whole entry): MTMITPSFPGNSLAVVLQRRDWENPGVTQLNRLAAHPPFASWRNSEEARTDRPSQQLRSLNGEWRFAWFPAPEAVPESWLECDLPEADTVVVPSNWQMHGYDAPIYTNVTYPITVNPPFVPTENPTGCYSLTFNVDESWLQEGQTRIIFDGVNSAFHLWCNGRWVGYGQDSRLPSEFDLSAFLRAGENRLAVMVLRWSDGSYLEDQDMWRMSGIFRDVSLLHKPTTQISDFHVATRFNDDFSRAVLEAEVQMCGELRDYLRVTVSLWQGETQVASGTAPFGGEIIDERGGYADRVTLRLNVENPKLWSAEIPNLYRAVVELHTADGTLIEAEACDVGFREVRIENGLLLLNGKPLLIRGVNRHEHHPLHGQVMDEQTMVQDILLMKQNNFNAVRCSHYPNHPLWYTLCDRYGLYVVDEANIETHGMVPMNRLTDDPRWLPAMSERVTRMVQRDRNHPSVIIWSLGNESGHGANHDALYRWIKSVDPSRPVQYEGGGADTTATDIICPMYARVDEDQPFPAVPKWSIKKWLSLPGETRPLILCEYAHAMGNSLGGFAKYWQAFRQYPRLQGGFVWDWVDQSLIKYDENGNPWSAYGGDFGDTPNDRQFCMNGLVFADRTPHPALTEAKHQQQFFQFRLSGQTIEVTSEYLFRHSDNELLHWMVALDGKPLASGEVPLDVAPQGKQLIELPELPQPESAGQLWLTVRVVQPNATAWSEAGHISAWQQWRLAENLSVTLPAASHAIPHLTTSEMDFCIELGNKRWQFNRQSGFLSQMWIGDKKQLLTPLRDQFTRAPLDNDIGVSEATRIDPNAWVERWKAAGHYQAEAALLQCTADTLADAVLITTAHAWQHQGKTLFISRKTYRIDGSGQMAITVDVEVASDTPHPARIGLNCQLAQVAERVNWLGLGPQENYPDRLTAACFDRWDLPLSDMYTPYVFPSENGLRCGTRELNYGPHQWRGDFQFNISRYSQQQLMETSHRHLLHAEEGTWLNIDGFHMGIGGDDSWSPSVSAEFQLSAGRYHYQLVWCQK

O=C(Cc1ccc(F)cc1)OCC(=O)c1cc2ccccc2o1
EC50 [1]: > 40 µM (inactive) | IC50 [2]: 23.9 µM (not active)

CCc1ccc(-c2nc(C[S+]([O-])CC(=O)NCc3ccco3)c(C)o2)cc1 (stereo unspecified)
IC50 [3]: > 80 µM (inactive) | IC50 [4]: 44.1 µM (inactive)

O=C(C=Cc1ccccc1)c1cnc2ccccc2c1O
CC50 [5]: 11 µM (active) | IC50 [6]: > 25 µM (active)

Cc1ccnc(SCc2cc(=O)c(OC(=O)c3ccco3)co2)n1
IC50 [7]: 15.8 µM (active)

CS(=O)(=O)N1CCc2cc(C(=O)Nc3ccccc3Cl)ccc21
IC50 [8]: > 67.5 µM (inactive) | IC50 [9]: > 67.5 µM (inactive)

O=C(CCl)N1CCCC1c1ccc2c(c1)OCCO2 (stereo unspecified)
EC50 [10]: 14 µM (active) | CC50 [11]: 11.6 µM (active) | AC50 [12]: 12.2 µM (active) | EC50 [13]: > 380 µM (inconclusive) | IC50 [3]: > 80 µM (inactive) | EC50 [14]: > 120 µM (not active) | EC50 [15]: 1.14 µM (active) | EC50 [16]: 29.6 µM (active) | IC50 [4]: 1.39 µM (active)

Nc1c(-c2ccc(Cl)cc2)cnc2c(-c3ccccc3)cnn12
IC50 [8]: > 67.5 µM (inactive) | IC50 [9]: > 67.5 µM (inactive)

CN1CCN(C(=S)c2ccc(-c3cccc([N+](=O)[O-])c3)o2)CC1
EC50 [10]: 0.117 µM (active) | IC50 [8]: > 67.6 µM (inactive) | EC50 [14]: 2.4 µM (active) | EC50 [16]: 0.141 µM (active) | IC50 [9]: > 67.6 µM (inactive)

COc1ccc(C(=O)NC2CCCc3c2cnn3-c2cccc(C)c2C)c(OC)n1 (stereo unspecified)
AC50 [17]: 17.5 µM (active) | CC50 [5]: > 25 µM (active) | AC50 [18]: 1.96 µM (active) | AC50 [19]: > 70 µM (inactive) | AC50 [20]: 3.27 µM (active) | IC50 [6]: 3.8 µM (active)

CCCCCn1c(=O)[nH]c2cc(C(=O)NCCCN3CCCCC3C)ccc2c1=O (stereo unspecified)
IC50 [7]: 14.5 µM (active)

c1ccc2c(c1)ccc1[nH]c3c(c12)CCCC3
CC50 [5]: > 25 µM (active) | IC50 [6]: 3.39 µM (active)

O=C1Nc2ccccc2C1=Nc1ccc(F)cc1
EC50 [1]: > 40 µM (inactive) | IC50 [2]: 24.4 µM (not active)
